Read-outs that look alike come from different tables or passages of the source.
Experiments:
[1] = in vitro; settings: human
Method: (§1) An ATP-lite assay was carried out over 48 to 72 hours in order to determine cytotoxicity of paclitaxel-loaded nanoparticles comprising a surface-modifying agent compared with that of paclitaxel and empty nanoparticles on healthy brain cell lines and determine IC50 values.
(§2) The formulations tested were as follows: vehicle, empty nanoparticles, decorated paclitaxel-loaded nanoparticles (3.33% paclitaxel by weight; decoration: SEQ ID #5) paclitaxel and etoposide (etoposide is described as having mild toxicity in treatment of brain cancer).
(§3) Three cell lines were tested. Normal human astrocytes (NHA; Lonza) are primary-derived cultures of adherent cells with limited number of divisions. Normal human […] (NHNP; primary cell line; Lonza) are neurosphere growing cells with high number of division that differentiate in adherent […] cells and neurons under specific conditions (laminin coated plates, induction with differentiation factors). Finally, immortalized human neural progenitors (RenCells; Millipore) are fetal brain cells transformed with c-myc oncogene.
(§4) Cells were incubated with treatment for 24 hours (astrocytes) and 72 hours (progenitor cell lines)

[2] = system: Immortalized human neural progenitors (ReNcells); settings: 72 h, 50 μM
Method: as §1, §2, §3, §4

[3] = system: Normal human neural progenitors (NHNP); settings: 72 h, 50 μM
Method: as §1, §2, §3, §4

[4] = system: CGL-1 cell line; assay: Clonogenic assay (soft agar colony formation); assay type: cell-based; settings: 336 h, read-out: IC50 (concentration that inhibits 50% of clones); CGL1, experiment 3, serial dilutions 1:5, highest concentration 1000 nM, 14 days colony formation
Method: (§5) A clonogenic assay was carried out to observe the toxicity of decorated paclitaxel-loaded nanoparticles compared with that of paclitaxel and empty nanoparticles on glioma cell lines and determine IC50 values in a long term effect (2 to 3 weeks growth). Nanoparticles with or without a surface-modifying agent (SEQ ID#5) were formed according to the method of example 2, with or without inclusion of paclitaxel.
(§6) Three cells lines were used. The CGL-1 cell line (Oncodesign, Dijon, France) was isolated from the TG-1 tumour subcutaneously (SC) implanted in Nude rat. 14 days were allowed for colony formation. The human U-87 MG cell line (American Type Culture Collection) was initiated from a […] glioblastoma from a person. 21 days were allowed for colony formation. Finally, the LN-229 cell line (American Type Culture Collection) was established in 1979 from cells taken from a patient with right frontal parieto-occipital glioblastoma. 14-21 days were allowed for colony formation.
(§7) The formulations tested were as follows: nanoparticles (stock solution NaCl 0.9%); paclitaxel-loaded nanoparticles (3.33% paclitaxel by weight; stock solution NaCl 0.9%); and paclitaxel (stock solution DMSO 100%). All test substances diluted at 100 μM in their respective vehicle to obtain stock solutions. Five concentrations (1:5 or 1:3 dilution steps) were used in triplicate. Formulations were obtained by diluting stock solutions at 100 μM in their respective vehicle to obtain a series of five concentrations in 1:5 or 1:3 dilution steps. Each solution was then further diluted at 1:20 with RPMI 1640 before final dilution at 1:10 into soft agar.
(§8) Repetitions were carried out for GCL-1 at 2 nM, 8 nM, 40 nM, 200 nM and 1000 nM and for LN-229 at 1.2 nM, 3.7 nM, 11 nM, and 33 nM. At least 2 independent experiments were carried out with top concentrations and dilution steps changed when needed. Cells were incubated for 14 to 21 days with the different treatments.
(§9) Results are given in Table 4 and indicate the % survival from the initial 300 clones. Vehicle results not included (100% survival in all cases). The results are shown graphically in FIGS. 4, 5 and 6. Clonogenic tests are based on clones of cells and not cells alone.

[5] = system: LN-229 cell line; assay: Clonogenic assay (soft agar colony formation); assay type: cell-based; settings: Homo sapiens
Method: as §5, §6, §7, §8, §9

[6] = system: U-87 MG cell line; assay: Clonogenic assay (soft agar colony formation); assay type: cell-based; settings: Homo sapiens
Method: as §5, §6, §7, §8, §9

[7] = system: CGL1; settings: cells treated for few days, read-out: Paclitaxel metabolic assay (historical data) IC50; cited from earlier work
[8] = system: U87-MG; settings: cells treated for few days, read-out: Paclitaxel metabolic assay (historical data) IC50; cited from earlier work
[9] = system: U87-MG; settings: read-out: literature IC50 values for paclitaxel alone; cited from earlier work

SMILES | IC50 at 24 h [1] [µM] | % survival [2] [%] | % survival [3] [%] | IC50 [4] [nM] | IC50 ([5]; LN-229, read-out: IC50 (concentration that inhibits 50% of clones), LN229, experiment 4, serial dilutions 1:3, highest concentration 100 nM, 14-21 days colony formation) [nM] | IC50 ([5]; LN-229, read-out: IC50 (concentration that inhibits 50% of clones), LN229, experiment 5, serial dilutions 1:3, highest concentration 100 nM, 14-21 days colony formation) [nM] | IC50 ([6]; 504 h, read-out: IC50 (concentration that inhibits 50% of clones), U87-MG, experiment 2, serial dilutions 1:5, highest concentration 500 nM, 21 days colony formation) [nM] | IC50 ([6]; 504 h, read-out: IC50 (concentration that inhibits 50% of clones), U87-MG, experiment 3, serial dilutions 1:5, highest concentration 500 nM, 21 days colony formation) [nM] | IC50 ([6]; U87-MG cells, test repeated, read-out: IC50, repeated test) [nM] | IC50 [7] [nM] | IC50 [8] [nM] | IC50 [9] [nM]
COc1cc([C@@H]2c3cc4c(cc3[C@@H](O[C@@H]3O[C@@H]5CO[C@@H](C)O[C@H]5[C@H](O)[C@H]3O)[C@H]3COC(=O)[C@H]23)OCO4)cc(OC)c1O [Etoposide, etoposide] | ~50 | 3 | 21 | – | – | – | – | – | – | – | – | –
CC(=O)O[C@H]1C(=O)[C@@]2(C)[C@H]([C@H](OC(=O)c3ccccc3)[C@]3(O)C[C@H](OC(=O)[C@H](O)[C@@H](NC(=O)c4ccccc4)c4ccccc4)C(C)=C1C3(C)C)[C@]1(OC(C)=O)CO[C@@H]1C[C@@H]2O [Paclitaxel, paclitaxel] | – | – | – | 792 | 7.3 | 21 | 2.6 | 7.5 | 4 to 20 | > 100 | ~10 | 10 to 20

Source: patent publication US20140213641A1, “POLYMERIC NANOPARTICLES FOR DRUG DELIVERY” (INSTITUT QUIMIC DE SARRIA, priority 2011, published 2014)
